Values quoted from earlier work in US20260097052A1, “NOVEL ORAL CANNABINOID FORMULATIONS” (Esolate Pharmaceuticals Ltd, priority 2023, published 2026).

Conditions: humans

**Q.** Which Oral bioavailability does the source give for `C=C(C)[C@@H]1CCC(C)=C[C@H]1c1c(O)cc(CCCCC)cc1O` [CBD, cannabidiol] here?
**A.** approximately 6%
